From patent US20240190838A1, “LZK-TARGETING DEGRADERS AND METHODS OF USE” (The U.S.A., as represented by the Secretary, Department of …, priority 2020, published 2024)

Columns and labels:
[1] = Pharmacokinetics in female NSG mice; assay type: in vivo; conditions: single IP 50 mg/kg
Experimental: Drug concentrations in plasma and tissue samples were measured by a qualified UPLC-MS/MS method with a Waters Acquity I-Class UPLC interfaced with a Waters TQ-S mass spectrometer. The lower limit of quantitation (LLOQ) was 1 ng/mL for plasma and 1 ng/g tissue for liver, kidney, lung and brain. PK parameters were calculated using the non-compartmental method of the pharmacokinetic software package Phoenix WinNonlin, version 6.2 (Certara, St. Louis, MO). The area under the plasma concentration versus time curve (AUC) was calculated using the linear trapezoidal method. […] The apparent terminal half-life (t1/2) was calculated as 0.693/λ.
In vitro ADME properties of targeted degraders 3 and 7 were studied with the standard Tier I assays, i.e. kinetic solubility assay, parallel artificial membrane permeability assay (PAMPA) and rat liver microsomal (RLM) stability assay (Sun et al., Bioorg Med Chem 2019, 27(14):3110-4; Sun et al., Bioorg Med Chem 2017, 25(3):1266-76; Shah et al., Drug Metab Dispos 2016, 44(10):1653-61). The pharmacokinetics (PK) of targeted degraders 3 and 7 were determined in female NSG mice (The Jackson Laboratory; body weight range from 17-25 grams) after a single intraperitoneal injection of 50 mg/kg. […]

LZK = biological target: T1, LZK (Homo sapiens, UniProt O43283); assay: LZK degradation (doxycycline-induced LZK expression, immunoblot) in CAL33 cells; assay type: cell-based; design: V5 (named only in the vector); expressed in transfected cells; host or cells: CAL33 HNSCC cells, lentiviral T-REx system, induced with doxycycline
T1 sequence (O43283 1-966): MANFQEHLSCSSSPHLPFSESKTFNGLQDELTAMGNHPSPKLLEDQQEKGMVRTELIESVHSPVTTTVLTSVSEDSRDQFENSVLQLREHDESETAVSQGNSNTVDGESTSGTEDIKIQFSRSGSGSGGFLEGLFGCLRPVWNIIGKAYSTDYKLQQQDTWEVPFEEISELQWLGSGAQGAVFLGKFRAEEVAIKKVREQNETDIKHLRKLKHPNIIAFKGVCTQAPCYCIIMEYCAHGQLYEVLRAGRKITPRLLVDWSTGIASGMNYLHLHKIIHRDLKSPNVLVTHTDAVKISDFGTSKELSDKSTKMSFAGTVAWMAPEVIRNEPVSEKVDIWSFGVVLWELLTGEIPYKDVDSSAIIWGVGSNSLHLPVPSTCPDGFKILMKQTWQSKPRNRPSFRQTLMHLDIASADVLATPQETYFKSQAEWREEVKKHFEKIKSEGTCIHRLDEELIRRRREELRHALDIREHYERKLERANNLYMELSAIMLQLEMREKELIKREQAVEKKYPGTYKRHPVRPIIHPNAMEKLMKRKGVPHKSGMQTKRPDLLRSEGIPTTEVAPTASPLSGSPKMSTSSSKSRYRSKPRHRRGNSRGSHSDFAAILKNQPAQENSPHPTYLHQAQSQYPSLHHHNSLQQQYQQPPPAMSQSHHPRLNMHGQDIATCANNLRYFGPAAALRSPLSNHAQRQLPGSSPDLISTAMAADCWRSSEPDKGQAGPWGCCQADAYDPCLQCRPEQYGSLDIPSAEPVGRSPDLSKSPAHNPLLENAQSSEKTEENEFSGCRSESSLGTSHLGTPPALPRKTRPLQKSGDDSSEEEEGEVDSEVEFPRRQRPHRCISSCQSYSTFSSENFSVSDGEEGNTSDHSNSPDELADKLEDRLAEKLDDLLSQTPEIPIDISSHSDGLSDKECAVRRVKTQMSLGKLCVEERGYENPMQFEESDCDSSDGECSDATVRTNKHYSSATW
Source text: The ViraPower HiPerform T-REx Gateway Expression System (Invitrogen) was used to generate cells with tetracycline-inducible expression of LZK. In brief, wild-type (WT) or drug-resistant mutant (Q240S) LZK (cloned into pLenti6.3/TO/V5-DEST vector) and pLenti3.3/TR (for tetracycline repressor expression) were transfected into 293FT cells using Lipofectamine 2000 to generate lentiviral stock. Cell lines were generated by antibiotic selection (blasticidin [Gibco] and geneticin [Gibco]). Doxycycline (Sigma-Aldrich) was used at 1 μg/mL to induce LZK expression.
Generally, cells were plated in six-well or 35-mm plates for 24 hours, after which doxycycline was added or treatment with specific inhibitor was administered using […] for 48 hours. After appropriate treatment time, cells were washed with ice-cold phosphate-buffered saline without Ca and Mg (Quality Biological) and then lysed on ice with RIPA buffer (50 mM NaCl, 1.0% o IGEPAL® CA-630, 0.5% o sodium deoxycholate, 0.10% SDS, 50 mM Tris, pH 8.0) (Sigma-Aldrich) supplemented with protease inhibitor tablet (Sigma-Aldrich) and phosphatase inhibitor cocktails 2 and 3 (Sigma-Aldrich) followed by centrifugation at 15,000 rpm for 10 minutes at 4° C. Protein concentrations were determined from the cell lysate by using 660 nm Protein Assay Reagent (Pierce). Cell extracts were denatured, subjected to SDS-PAGE, transferred to PVDF membranes (Bio-Rad) and blocked for 2 hours using 5 bovine serum albumin (BSA) in phosphate-buffered saline and 0.10 Tween® 20 (PBS-T). The membranes were incubated with the specific antibodies overnight in […] at 4° C. followed by a 1 hour incubation with the appropriate horseradish peroxidase-conjugated secondary antibodies and signal was detected by chemiluminescence (Thermo Fisher).

SMILES: Cc1ncsc1-c1ccc([C@H](C)NC(=O)[C@@H]2C[C@@H](O)CN2C(=O)[C@@H](NC(=O)CCCCCCC(=O)N2CCC(c3cc(Nc4cc(C#N)ccn4)nc(N4CCC(F)(F)C4)c3)CC2)C(C)(C)C)cc1 [Compound 3]
- tissue distribution and drug characteristics [1]: variable tissue distribution and overall promising drug characteristics
- LZK degradation (LZK; 1 μM for 48 hours): degraded LZK
- rescue of degrader-mediated loss of LZK expression by MG132 (LZK; two-hour pretreatment MG132 (3 μM), degrader 1 μM 24 hours): rescued by adding a proteasome inhibitor (MG132)
- rescue of degrader-mediated loss of LZK expression by MLN4924 (LZK; two-hour pretreatment MLN4924 (500 nM), degrader 1 μM 24 hours): rescued with MLN4924
